According to PMC4102551, “Screening and Characterisation of Antimicrobial Properties of Semisynthetic Betulin Derivatives” (PLoS ONE, 2014):
Where “and” joins values, the source holds several entries; their conditions need not be identical. Identical values can stand only once.

Assays:
Huh-7 cells = experiment: in vitro; format: cell-based, human; details: 50 µM, 24 h exposure, ATP content, 5% FBS
Procedure: Huh-7 cells (derived from human hepatocellular carcinoma) were obtained as a gift from Prof. Ralf Bartenschlager (University of Heidelberg, Germany) and used for assessing the cytotoxicity against mammalian cells. HL cells (a heteroploid cell line used for propagating respiratory viruses) were used as a host cell line in the host-pathogen co-culture assay. […] Both cell lines were cultured at 37°C, 5% CO2 and 95% humidity.
The effect of the betulin derivatives on metabolic activity of Huh-7 cells was evaluated by measuring the intracellular ATP content of the cells after 24 h exposure to the compounds. In brief, cells were seeded at 20000 cells/well on white-walled microplates (PerkinElmer) and incubated at 37°C, 5% CO2 and 95% humidity. After culturing the cells overnight, the medium was replaced with the assay media (5% FBS) containing the sample and the cells were incubated for 24 h. Polymyxin B sulphate (15000 IU/mL) was used as a positive control. Following the incubation period, Promega’s CellTiter-Glo Cell Viability Assay was used to determine the intracellular ATP levels according to the manufacturer’s instructions. Cells were washed with 100 µL 6.7 mM PBS, pH 7.4 and 50 µL of fresh assay media and 50 µL of the CellTiter-Glo reagent were added into the wells. After 2 min shaking, followed by 10 min incubation at RT, luminometric signal was measured using Varioskan Flash plate reader (Thermo Fisher Scientific).

S. aureus ATCC 25923 = experiment: Broth microdilution assay, S. aureus; format: cell-based, Staphylococcus aureus; details: 50 µM, 24 h, inhibition of growth, mean ± SD
Procedure: (§1) Clinically used antimicrobial agents were selected based on international guidelines for antimicrobial testing and were utilised as reference compounds in the antimicrobial assays. The compounds were purchased from Sigma, Fluka and ICN Biomedicals. Stock solutions of the reference compounds were prepared either in double distilled sterile MilliQ water or in DMSO. Water solutions were sterilised through a 0.22 µm filter (VWR International). […] During the primary screening, these reference compounds were used as positive controls at the determined MIC on every plate.
(§2) Gram-negative strains Escherichia coli (ATCC 25922), Enterobacter aerogenes (ATCC 13048) and Pseudomonas aeruginosa (ATCC 27853), Gram-positive strains Staphylococcus aureus (ATCC 25923) and Enterococcus faecalis (ATCC 29212), and fungal strain Candida albicans (ATCC 90028) were obtained from Microbiologics Inc., and used for the antimicrobial screening. Strains were selected according to the guidelines set for clinical laboratories by Clinical and Laboratory Standards Institute [CLSI, formerly National Committee on Clinical Laboratory Standards [22]] and the European Committee on Antimicrobial Susceptibility Testing (EUCAST). Bacterial strains were grown on Mueller Hinton II Agar (MHA) (BBL, BD) and Mueller Hinton II broth (MHB) (BBL, BD), whereas Candida was initiated on Sabouraud Dextrose Agar (SDA) (Difco, BD) plates. Media were prepared into MilliQ water according to manufacturer’s instruction and autoclaved at 121°C for 15 min. Bacteria were plated on MHA plates and incubated at 37°C for 16–18 h. Bacterial suspension for the assays was prepared by subculturing the bacteria into MHB and by incubating at 37°C for 16–20 h at 110 rpm prior to the assay. Candida strain was grown on SDA plates at 27°C for 16–18 h and suspended into sterile 0.9% saline for the assay.
(§3) Antimicrobial screening assays were performed by broth microdilution method following the guidelines of CLSI and EUCAST. Bacterial suspensions were prepared as mentioned earlier and diluted with MHB to obtain a final inoculum of 5×10^5 colony-forming units (cfu)/mL in the assay for all the bacteria (based on OD620 values previously calibrated against plate counts). Candida suspension was prepared into sterile 0.9% saline solution as stated earlier. […] Assays were carried out in clear 96-well microtitre plates and initiated by dispensing an equal volume of microbial suspension and sample solution diluted into the assay medium into the wells. The plates were incubated for 24 h at 37°C (for Candida the incubation was at 35°C for 48 h) with agitation. Absorbance was measured at 620 nm with Victor plate reader (Wallac 1420, Perkin Elmer) at 0, 4 and 24 h with the bacteria, and at 0, 24 and 48 h with Candida. The antimicrobial activity of the samples was calculated from the absorbance values by comparing to the controls, and expressed as a percentage inhibition of growth. All the betulin derivatives were first assayed at the single concentration of 50 µM (two separate experiments, each with three replicates). […] The MIC90 value was expressed as the lowest concentration of compound that inhibited the microbial growth by >90%. The MIC90 results are means of three replicates from two separate experiments.

P. aeruginosa ATCC 27853 = experiment: Broth microdilution assay, P. aeruginosa; format: cell-based, Pseudomonas aeruginosa; details: 50 µM, 24 h, inhibition of growth, mean ± SD
Procedure: as §1, §2, §3

E. aerogenes ATCC 13048 = experiment: Broth microdilution assay, E. aerogenes; format: cell-based, Enterobacter aerogenes; details: 50 µM, 24 h, inhibition of growth, mean ± SD
Procedure: as §1, §2, §3

C. albicans ATCC 90028 = experiment: Broth microdilution assay, C. albicans; format: cell-based, Candida albicans; details: 50 µM, 48 h at 35°C, inhibition of growth, mean ± SD
Procedure: as §1, §2, §3

E. coli ATCC 25922 = experiment: Broth microdilution assay, E. coli; format: cell-based, Escherichia coli; details: 50 µM, 24 h, inhibition of growth, mean ± SD
Procedure: as §1, §2, §3

E. faecalis ATCC 29212 = experiment: Broth microdilution assay, E. faecalis; format: cell-based, Enterococcus faecalis; details: 50 µM, 24 h, inhibition of growth, mean ± SD
Procedure: as §1, §2, §3

Row | Structure (SMILES) | Cytotoxicity (%) Huh-7 cells (Huh-7 cells) | Inhibitory effect (%) S. aureus ATCC 25923 (S. aureus ATCC 25923) | Inhibitory effect (%) P. aeruginosa ATCC 27853 (P. aeruginosa ATCC 27853) | Inhibitory effect (%) E. aerogenes ATCC 13048 (E. aerogenes ATCC 13048) | Inhibitory effect (%) C. albicans ATCC 90028 (C. albicans ATCC 90028) | Inhibitory effect (%) E. coli ATCC 25922 (E. coli ATCC 25922) | Inhibitory effect (%) E. faecalis ATCC 29212 (E. faecalis ATCC 29212)
1 | C=C(C)C1CCC2(COS(C)(=O)=O)CCC3(C)C(CCC4C5(C)CCC(OC(C)=O)C(C)(C)C5CCC43C)C12 (centres unmarked) [Compound 13] | 0.2±3.8% | -16.5±3.0% | 6.5±0.9% | 15.0±1.9% | -14.8±8.5% | -0.4±3.4% | 61.2±1.5%
2 | C=C(C)[C@@H]1CC[C@]2(COC(C)=O)CC[C@]3(C)[C@H](CC[C@@H]4[C@@]5(C)CC[C@H](O)C(C)(C)[C@@H]5CC[C@]43C)[C@@H]12 [Compound 9] | 5.1±1.0% | 5.1±6.9% | -0.6±3.3% | 9.1±2.1% | 3.0±10.1% | -0.2±7.1% | 50.9±2.1%
3 | C=C(C)C1CCC2(C=O)CCC3(C)C(CCC4C5(C)CCC(=O)C(C)(C)C5CCC43C)C12 (centres unmarked) [Compound 22] | 4.1±17.7% | 0.1±1.5% | 4.5±1.6% | 6.0±4.6% | -18.7±15.1% | -1.2±0.5% | 16.3±19.0%
4 | CC(C)C12CCC3(CO)CCC4(C)C(=C31)C(CC1C3(C)CCC(O)C(C)(C)C3CCC14C)n1c(=O)n(-c3ccccc3)c(=O)n12 (centres unmarked) [Compound 44] | 2.8±5.3% | 5.7±2.2% | 3.3±1.1% | 11.7±1.1% | -25.4±8.0% | -1.0±0.3% | 57.1±7.1%
5 | C=C(C)C1CCC2(CO)CCC3(C)C(CCC4C5(C)CCC(OC(C)=O)C(C)(C)C5CCC43C)C12 (centres unmarked) [Compound 12] | 3.8±14.1% | -16.3±7.4% | 1.8±1.2% | 14.5±1.3% | -18.0±27.4% | 1.0±5.0% | 54.7±7.9%
6 | CC(=O)OCC12CCC3(C(C)C)C1=C1C(CC4C5(C)CCC(OC(C)=O)C(C)(C)C5CCC4(C)C1(C)CC2)n1c(=O)n(-c2ccc(F)cc2)c(=O)n13 (centres unmarked) [Compound 37] | 0.8±3.4% | 6.5±0.9% | 4.6±0.7% | 17.7±2.2% | 11.7±9.0% | 5.0±8.8% | 48.2±7.7%
7 | C=C(C)[C@@H]1CC[C@]2(C#N)CC[C@]3(C)[C@H](CC[C@@H]4[C@@]5(C)CC[C@H](OC(C)=O)C(C)(C)[C@@H]5CC[C@]43C)[C@@H]12 [Compound 33] | 21.6±17.0% | 20.5±52.1% | 3.6±3.9% | 11.4±4.2% | -51.2±39.1% | -4.6±3.3% | 49% and 49.2±2.2%
8 | C=C(C)C1CCC2(C(=O)NC(CC(=O)O)C(=O)O)CCC3(C)C(CCC4C5(C)CCC(=O)C(C)(C)C5CCC43C)C12 [Compound 27, L-aspartyl amide of betulonic acid] | 10.9±1.3% | 12.7±3.3% | -1.2±0.4% | 9.3±1.0% | 44.2±3.8% | 3.1±4.6% | 38.2±15.5%
9 | CCCC(=O)OCC12CCC3(C(C)C)C1=C1C(CC4C5(C)CCC(OC(=O)CCC)C(C)(C)C5CCC4(C)C1(C)CC2)n1c(=O)n(C)c(=O)n13 (centres unmarked) [Compound 46] | 6.4±2.9% | 2.5±3.1% | 5.2±0.7% | 7.4±5.9% | -56.1±14.6% | -2.1±6.4% | 44.8±2.8%
10 | C=C(C)[C@@H]1CC[C@]2(COC(=O)C3C(C=C(C)C)C3(C)C)CC[C@]3(C)[C@H](CC[C@@H]4[C@@]5(C)CC[C@H](O)C(C)(C)[C@@H]5CC[C@]43C)[C@@H]12 (some centres unmarked) [Compound 3, 28-O-chrysanthemoylbetulin] | -5.8±2.5% | -23.2±11% | 4.4±1.4% | 10.6±0.5% | 35.4±3.8% | 0.3±1.7% | 46.9±6.0%
11 | CC(=O)OCC12CCC3(C(C)C)C1=C1C(CC4C5(C)CCC(OC(C)=O)C(C)(C)C5CCC4(C)C1(C)CC2)n1c(=O)n(-c2cccc(Cl)c2)c(=O)n13 (centres unmarked) [Compound 39] | 1.5±2.7% | 5.7±0.8% | 2.6±1.1% | 19.0±1.9% | 4.8±13.6% | 4.4±2.7% | 69.1±4.9%
